Source: PubChem BioAssay AID624395 (The Scripps Research Institute Molecular Screening Center, 2012)
Activity calls are given as the source filed them. How the calls were made is not given here.

Test system: cell-based VP16 transactivation luciferase luminescence
Test: VP16 transactivation luciferase reporter inhibitors, dose response, counter-screen for NR2E3 agonist project, cell-based, luminescence (AID 624395)

Row | SMILES | IC50
1 | COCc1nnc(NC(=O)c2ccc(S(=O)(=O)N(CC(C)C)CC(C)C)cc2)o1 | 6.62 µM
2 | Brc1ccc(N/N=C(/N=Nc2nn[nH]n2)c2ccccc2)cc1 | 12.8 µM (inactive)
3 | O=C(/C=C/c1ccc([N+](=O)[O-])o1)NNC(=O)c1ccc(F)cc1 | 24.2 µM (inactive)
4 | O=C(OC12CC3CC(CC(C3)C1)C2)c1ccc(NCc2cc(O)ccc2O)cc1 | 11.6 µM (inactive)
5 | COCCCNC(=S)N1CCN(c2nc(-c3ccc(Cl)cc3)cs2)CC1 | 10.6 µM (inactive)
6 | Cc1onc(-c2ccccc2Cl)c1C(=O)Nc1nc2c(s1)CCCC2 | > 39.8 µM (inactive)
7 | C=C(C(=O)c1ccccc1)C(NC(C)(C)C)c1ccccc1 (stereo not drawn) | 5.27 µM
8 | Cc1cc(C(=O)CSc2nnc3ccccn23)c(C)n1-c1ccccc1 | 25.7 µM (inactive)
9 | COc1ccc(NC(=O)/C(Cl)=C(/Cl)S(=O)(=O)Cc2ccccc2)cn1 | 5.13 µM
10 | COc1cnc(-c2ccccn2)nc1N(C)c1ccccc1 | 5.76 µM
11 | O=C(C(=Cc1ccccc1)CN1CCCCC1)c1ccccc1 | 4.54 µM
12 | COc1ccccc1-n1c(=O)oc2ccc(Cl)cc2c1=O | 7.67 µM
13 | O=C(COC(=O)c1cc([N+](=O)[O-])ccc1N1CCOCC1)Nc1ccc(Cl)cn1 | 31.8 µM (inactive)
14 | O=C(C1CC1)N1CCc2cc(Br)cc(S(=O)(=O)N3CCN(c4ccccn4)CC3)c21 | > 39.8 µM (inactive)
15 | Cc1nn(Cc2cccc(F)c2)c(C)c1NC(=O)c1ccc(COc2ccccc2Cl)cc1 | 11.7 µM (inactive)
16 | OC[C@@H]1CN(Cc2ccc(-c3ccccc3)cc2)C[C@H](n2cnc3c(NCc4ccncc4)ncnc32)O1 | 4.44 µM
17 | CC(=O)NC(c1cccs1)c1cc([N+](=O)[O-])c2cccnc2c1O (stereo not drawn) | 5.77 µM
18 | Oc1[nH]c2ccc(Br)cc2c1N=NC(=S)N1CCOCC1 | > 13.3 µM (inactive)
19 | CCC1(O)C(=O)OCc2c1cc1n(c2=O)Cc2cc3c(N)cccc3nc2-1 (stereo not drawn) | 2.33 µM
20 | CCc1cccc2sc(N3CCN(C(=O)c4ccc([N+](=O)[O-])o4)CC3)nc12 | > 13.3 µM (inactive)
21 | O=[N+]([O-])c1ccc(NC(=S)NCCc2ccc(F)cc2)cc1 | 5.02 µM
22 | CCc1ccccc1Nc1nn2c(=O)c3ccc(C(=O)NCc4ccccn4)cc3nc2s1 | > 13.3 µM (inactive)
23 | Cc1cnc(NC(=O)CN2CCN(c3ccccn3)CC2)s1 | 9.56 µM
24 | COc1cc2c(oc(=O)c3cc(C)cc(OC)c32)c2c(C3OC(C)C(O)C(C)(O)C3O)ccc(O)c12 (stereo not drawn) | 7.6 µM
25 | O=C(O)CC1(CC(=O)Nc2cc(C(F)(F)F)cc(C(F)(F)F)c2)CCCCC1 | 14.1 µM (inactive)
26 | CCC1(O)C(=O)OCc2c1cc1n(c2=O)Cc2cc3cc(O)ccc3nc2-1 (stereo not drawn) | 3.4 µM

Row | SMILES | IC50
27 | O=C(CN1C(=O)C(c2ccc(F)cc2)=NC12CCCC2)Nc1ccc(F)cc1 | 4.48 µM
28 | COc1cc2nc(CN3CC=C(c4ccccc4)CC3)[nH]c(=O)c2cc1OC | 1.91 µM
29 | O=C(OCCOc1ccc(Cl)cc1)c1cc(S(=O)(=O)N2CCCCC2)ccc1N1CCOCC1 | 8.66 µM
30 | CC(C)c1ccc(-c2csc(NC(=O)c3cccs3)c2C(=O)O)cc1 | 12.1 µM (inactive)
31 | CCCc1cc(=O)n2nc(N3CCC(C(=O)N4CCN(c5ccc(OC)cc5)CC4)CC3)sc2n1 | 4.44 µM
32 | Cc1cc2sc3ccc(C#CC4(O)CCCCC4)cc3c(=O)c2cc1C | 0.00878 µM
33 | N=C1SCC(=O)N1c1ncc(Cc2cccc(Cl)c2)s1 | 4.78 µM
34 | CCc1cc(OCCCSc2nc(C)cc(=O)[nH]2)ccc1Cl | 7.05 µM
35 | CC(=O)N1c2ccc(S(=O)(=O)N3CCC(C(=O)Nc4cccc(Cl)c4)CC3)cc2CC1C (stereo not drawn) | 6.45 µM
36 | CCC1(OC(=O)CN)C(=O)OCc2c1cc1n(c2=O)Cc2cc3ccccc3nc2-1 (stereo not drawn) | 1.31 µM
37 | NC(=O)c1nn(-c2ccccc2)nc1NC(=O)CSc1nnnn1-c1ccc(Cl)cc1 | > 39.8 µM (inactive)
38 | CNC(=S)/N=C/NOCc1ccc(Cl)cc1Cl | 5.03 µM
39 | Nc1nc(N)nc(-c2cc(O)ccc2O)n1 | 1.09 µM
40 | COC(CNC(=O)CSCc1nc(-c2ccc(SC)cc2)oc1C)OC | 2.61 µM
41 | Cc1ccnc(NC(=S)N2CCN(c3cccc(C(F)(F)F)c3)CC2)c1 | 12.3 µM (inactive)
42 | Cc1ccnc(NC(=O)CSc2cc(=O)n(C)c3ccccc23)c1 | 11 µM (inactive)
43 | COc1ccc2c(c1)/C(=C/c1cnc[nH]1)C(=O)N2 | 12.7 µM (inactive)
44 | COc1cccc2c1C(=O)c1c(O)c3c(c(O)c1C2=O)CC(O)(C(C)=O)CC3OC1CC(N(C)C)C(O)C(C)O1 (stereo not drawn) | 3.21 µM
45 | Cc1cnc(NC(=O)C2CC(=O)N(c3ccc4c(c3)OCCO4)C2)s1 (stereo not drawn) | > 39.8 µM (inactive)
46 | CC(C(=O)N1CCN(c2ccc(Cl)cc2)CC1)c1ncc(C(F)(F)F)cc1Cl (stereo not drawn) | 7.28 µM
47 | Cc1cccc(OCCCC(=O)Nc2nc3ccccc3[nH]2)c1 | > 39.8 µM (inactive)
48 | CCOC(=O)[C@]12Cc3cc(C)ccc3[C@H]1N(C1CCCCC1)C(=O)c1cc(OC)ccc12 | 4.32 µM
49 | CC(Oc1ccc(Br)cc1)c1nc2c3ccccc3nc(=S)n2[nH]1 (stereo not drawn) | 4.33 µM
50 | Cc1ccc(CN2CC(C(=O)Nc3ncc(C)s3)CC2=O)cc1 (stereo not drawn) | > 39.8 µM (inactive)
51 | COc1cc2c(OC(C)=O)c3c(c(-c4ccc5c(c4)OCO5)c2cc1OC)C(=O)OC3 | 3.48 µM
52 | C=CC[n+]1c(-c2ccc(Cl)cc2Cl)csc1Nc1ccc(NC(C)=O)cc1 | 2.75 µM

Row | SMILES | IC50
53 | Cc1cccc(NS(=O)(=O)c2ccc(-c3cnc(C4CC4)o3)cc2)c1C | 5.28 µM
54 | Cc1cnc(NC(=O)Cc2ccc(Br)cc2)s1 | > 39.9 µM (inactive)
55 | COCCn1c(C)cc(C(=O)COc2ccc(C)nc2[N+](=O)[O-])c1C | 1.46 µM
56 | O=C(O)c1ccc(S(=O)(=O)/N=C2\C=C(Nc3ccccc3F)C(=O)c3ccccc32)cc1 | 4.45 µM
57 | CCc1nnc(NC(=O)c2ccc(S(=O)(=O)N3CCCc4ccccc43)cc2)o1 | 6.8 µM
58 | COc1cccc(C(=O)c2sc(NC(C)C)nc2N)c1 | 5.16 µM
59 | Cc1ccc(NC(=O)CNC(=O)c2cccc(C)c2)nc1 | 26 µM (inactive)
60 | Cc1c(C(=O)Nc2ccc(Oc3ccccc3)cc2)sc2nc3n(c(=O)c12)CCC3 | 5.11 µM
61 | CCC1(OC(=O)CN(C)C)C(=O)OCc2c1cc1n(c2=O)Cc2cc3c(N)cccc3nc2-1 (stereo not drawn) | 2.99 µM
62 | COc1cccc(NC(=O)CSc2nc3ncc(Br)cc3[nH]2)c1 | > 39.8 µM (inactive)
63 | Cc1cccc(Cc2cnc(N3C(=N)SC(C)C3=O)s2)c1 (stereo not drawn) | 4.96 µM
64 | COc1ccc(NC2c3ccccc3C(=O)N2Cc2ccccc2Cl)cc1OC (stereo not drawn) | > 39.8 µM (inactive)
65 | O=C1N/C(=C\c2ccc(O)cc2)C(O)=C1C=NCc1ccccc1 | > 39.8 µM (inactive)
66 | O=c1c(Cl)c(N2CCN(c3ccc(F)cc3)CC2)cnn1C12CC3CC(CC(C3)C1)C2 | 38.2 µM (inactive)
67 | CN(C)c1ccc(/C=C/c2ccc3ccccc3[n+]2C)cc1 | 13 µM (inactive)
68 | O=C1C=CC2(O[C@H](c3ccccc3)[C@@H](c3ccccc3)O2)[C@H](Sc2ccccc2O)C1 | 4.89 µM
69 | O=[N+]([O-])c1cc(CN2CCN(c3ccccc3)CC2)c(O)c2ncccc12 | > 39.8 µM (inactive)
70 | CN1C2CCC1/C(=C/c1ccccn1)C(=O)/C2=C\c1ccccn1 | 4.5 µM
71 | Cc1cnc(NC(=O)C2CC(=O)N(c3cccc(Cl)c3)C2)s1 (stereo not drawn) | 1.05 µM
72 | Cc1cc(C)cc(NC(=O)CCc2nc3sc4c(c3c(=O)[nH]2)CCCC4)c1 | > 39.8 µM (inactive)
73 | COc1ccc(NC(=O)c2sc(=O)n(Cc3ccc(F)c(Cl)c3)c2C)cc1OC | 20.6 µM (inactive)
74 | COc1ccc(NC(=O)/C(Cl)=C(/Cl)S(=O)Cc2ccccc2)cn1 (stereo not drawn) | 2.1 µM
75 | Cc1cnc(NC(=O)CCCc2nc3ccccc3s2)s1 | 5.07 µM
76 | Cc1ccc(NC(=S)/C(C#N)=C2/Nc3ccccc3S2)cc1 | 2.76 µM
77 | CCC(=O)N1CCCc2cc(S(=O)(=O)N3CCN(c4ccccn4)CC3)ccc21 | 22.5 µM (inactive)
78 | N#C/C(=C\c1ccc(Sc2nc3ccccc3[nH]2)o1)c1ccccc1 | 4.65 µM

Row | SMILES | IC50
79 | C[C@H]1CCC/C=C/[C@@H]2C[C@H](O)C[C@H]2[C@H](O)[C@H](S(=O)c2ccc(O)cc2)CC(=O)O1 (stereo partly drawn) | 3.52 µM
80 | CC(=O)c1c(C)[nH]c(C(=O)OCC(=O)c2ccc(Br)cc2)c1C | 3.45 µM
81 | O=C1/C(=C\c2ccc([N+](=O)[O-])cc2)CS(=O)(=O)C/C1=C/c1ccc([N+](=O)[O-])cc1 | 4.12 µM
82 | CN(C)c1ccc(/C=C/c2cc[n+](C)c3ccccc23)cc1 | 6.66 µM
83 | O=c1cc(N2CCN(c3cccc(Cl)c3)CC2)[nH]c(=O)n1C1CCCCC1 | > 39.8 µM (inactive)
84 | COc1ccc(-n2c(C)cc(C(=O)COC(=O)c3ccc(O)cc3O)c2C)cc1 | 4.48 µM
85 | CCC(C)Nc1nc(-c2ccccn2)nc2ccccc12 (stereo not drawn) | 3.93 µM
86 | CC(C)(C)Nc1nc(-c2ccccn2)nc2ccccc12 | 4.08 µM
87 | Cc1ccc(C#N)c(SCc2nnc(-c3ccc(Cl)cc3)o2)n1 | 0.0132 µM
88 | O=S(=O)(/C(=C\c1ccc(C(F)(F)F)cc1)c1nc2ccccc2[nH]1)c1ccccc1 | 10.8 µM (inactive)
89 | Cc1c(Cl)ccc2sc(N3CCN(C(=O)C4=COCCO4)CC3)nc12 | 7 µM
90 | O=C(Nc1nnc(-c2cccs2)o1)c1cc(-c2ccccc2)nc2ccccc12 | 3.45 µM
91 | O=S(=O)(/C=C/C=C/S(=O)(=O)c1ccccc1)c1ccccc1 | 11.7 µM (inactive)
92 | CC(C)c1cc2c(c(O)c1O)[C@@]13CCCC(C)(C)C1CC2OC3=O (stereo partly drawn) | > 39.9 µM (inactive)
93 | CCCCCCCCCCCCN1[C@@H](CC(=O)O)c2cc(F)ccc2S1(=O)=O | 8.51 µM
94 | Cc1sc(NC(=O)/C=C/c2ccc3c(c2)OCO3)nc1-c1ccccc1 | 7.11 µM
95 | CC(C)N1CCc2c(sc(NC(=O)c3ccc([N+](=O)[O-])o3)c2C(N)=O)C1 | 3.05 µM
96 | COc1ccc(S(=O)(=O)N2CCCCC2)cc1NC(=S)Nc1ccccc1 | > 39.8 µM (inactive)
97 | CCCCC[C@@H]1C=C(C(=O)O)[C@H](c2ccc(Cl)c(Cl)c2)N1S(=O)(=O)c1ccc(C)cc1 | 8.77 µM
98 | CC1CC(C)C(=NNC(N)=O)C(C(O)CC2CCC(=O)NC2=O)C1 (stereo not drawn) | 4.07 µM
99 | Cc1ccnc(NC(=O)CCCOc2cc(=O)n(C)c3ccccc23)c1 | 8.23 µM
100 | CC1CCC/C=C/C2CC(O)CC2C(O)/C=C/C(=O)O1 (stereo not drawn) | 1.28 µM
101 | CN1CCN(C(=O)c2cccc(-c3cnc4cnc(-c5ccccc5Oc5ccccc5)cn34)c2)CC1 | 12.7 µM (inactive)
102 | Cc1nc2ncnn2c(N2CCN(c3cccc(C(F)(F)F)c3)CC2)c1C | 6.46 µM
103 | NC1=C(Br)C(=O)c2ncccc2C1=O | 2.51 µM
